The source of these data is patent US7230007B2, “Derivatives of 3-(Guanidinocarbonyl) heterocycle, methods of preparation and intermediates thereof, their use as medicaments, and pharmaceutical compositions therefrom” (Sanofi-Aventis Deutschland GmbH, priority 2003, dated 2007).

The target in one data set is T1, NHE1 (Homo sapiens, UniProt P19634).
T1 construct: expressed in transfected cells
The experiment in a line: NHE inhibition FLIPR test (intracellular pH recovery, BCECF). Type of data set: cell-based. The note with it: transfected LAP-1 cell line expressing NHE1 subtype, pHi recovery after acidification. How it is done:
The NHE inhibitory activities (IC50 values) of the compounds according to the invention were determined by a FLIPR test.
The test is performed in the FLIPR (Fluorescent Imaging Plate Reader) equipped with clear-bottomed and black-walled 96-well microtitration plates.
The growth medium for the transfected cells (Iscove+10% foetal calf serum) also comprises G418 as selection antibiotic to ensure the presence of transfected sequences.
The actual test begins by eliminating the growth medium and adding 100 μl of loading buffer per well (5 μM of BCECF-AM [2′,7′-bis(2-carboxyethyl)-5-(6)-carboxyfluoresceine acetoxymethyl ester] in 20 mM of NH4Cl, 115 mM of choline chloride, 1 mM of CaCl2, 5 mM of KCl, 20 mM of HEPES and 5 mM of glucose; pH 7.4 (adjusted with KOH). The cells are then incubated for 20 minutes at 37° C. This incubation results in the loading of the fluorescent dye into the cells, the fluorescence intensity of which depends on the pHi, and on the NH4Cl, which results in a slight basification of the cells.
The precursor BCECF-AM, a non-fluorescent dye, is, as an ester, capable of crossing the membrane. The actual dye, which is incapable of crossing the membrane, is released inside the cell by esterases.
After this 20-minute incubation, the loading buffer, which comprises NH4Cl and free BCECF-AM, is removed by washing three times in the cell washing device (Tecan Columbus), each wash being performed with 400 μl of washing buffer (133.8 mM of choline chloride, 4.7 mM of KCl, 1.25 mM of MgCl2,1.25 mM of CaCl2, 0.97 mM of K2HPO4, 0.23 mM of KH2PO4, 5 mM of HEPES and 5 mM of glucose; pH 7.4 (adjusted with KOH)). The residual volume remaining in the wells is 90 μl (possibly between 50 and 125 μl). This washing step removes the free BCECF-AM and results in an intracellular acidification (pHi of 6.3–6.4) due to the removal of the external ammonium ions.
As the equilibrium of the intracellular ammonium with the aqueous ammonia and the protons, by removal of the extracellular ammonium and by the subsequent immediate crossing of the aqueous ammonia across the cell membrane, is disrupted, the washing process results in intracellular protons remaining, which is the cause of the intracellular acidification. This acidification can result finally in the death of the cells if it lasts long enough. It is important here for the washing buffer to be free of sodium (<1 mM), otherwise the extracellular sodium ions would result in an immediate increase in the pHi on account of the activity of the cloned NHE isoforms. It is also important for all the buffers used (loading buffer, washing buffer and regeneration buffer) not to contain any HCO3^− ions, otherwise the presence of bicarbonate would result in the activation of bicarbonate-dependent systems that disrupt the pHi regulation, which systems are contained in the LAP-1 parental cell line.
The microtiter plates containing acidified cells are then transferred (up to 20 minutes after the acidification) to the FLIPR. In the FLIPR, the intracellular fluorescent dye is activated with light of a wavelength of 488 nm, which is generated by an argon laser, and the measuring parameters (laser power, illumination time and diaphragm of the […] camera integrated into the FLIPR) are chosen such that the average value of the fluorescent signal per well is between 30,000 and 35,000 relative fluorescence units.
The actual measurement in the FLIPR starts with a photograph being taken by the CCD camera every two seconds under software control. After 10 seconds, the increase in the intracellular pH is initiated by adding 90 μl. of regeneration buffer (133.8 mM of NaCl, 4.7 mM of KCl, 1.25 mM of MgCl2, 1.25 mM of CaCl2, 0.97 mM of K2HPO4, 0.23 mM of KH2PO4, 10 mM of HEPES and 5 mM of glucose; pH 7.4 (adjusted with NaOH)) using a 96-well pipette device incorporated into the FLIPR. Some wells, to which is added pure regeneration buffer, serve as positive controls (100% NHE activity). […]

Structures can show the parent of a compound that is named as a salt. A value given as a limit tells only on which side of the number the result lay.

T1 sequence (P19634 whole entry, species assumed): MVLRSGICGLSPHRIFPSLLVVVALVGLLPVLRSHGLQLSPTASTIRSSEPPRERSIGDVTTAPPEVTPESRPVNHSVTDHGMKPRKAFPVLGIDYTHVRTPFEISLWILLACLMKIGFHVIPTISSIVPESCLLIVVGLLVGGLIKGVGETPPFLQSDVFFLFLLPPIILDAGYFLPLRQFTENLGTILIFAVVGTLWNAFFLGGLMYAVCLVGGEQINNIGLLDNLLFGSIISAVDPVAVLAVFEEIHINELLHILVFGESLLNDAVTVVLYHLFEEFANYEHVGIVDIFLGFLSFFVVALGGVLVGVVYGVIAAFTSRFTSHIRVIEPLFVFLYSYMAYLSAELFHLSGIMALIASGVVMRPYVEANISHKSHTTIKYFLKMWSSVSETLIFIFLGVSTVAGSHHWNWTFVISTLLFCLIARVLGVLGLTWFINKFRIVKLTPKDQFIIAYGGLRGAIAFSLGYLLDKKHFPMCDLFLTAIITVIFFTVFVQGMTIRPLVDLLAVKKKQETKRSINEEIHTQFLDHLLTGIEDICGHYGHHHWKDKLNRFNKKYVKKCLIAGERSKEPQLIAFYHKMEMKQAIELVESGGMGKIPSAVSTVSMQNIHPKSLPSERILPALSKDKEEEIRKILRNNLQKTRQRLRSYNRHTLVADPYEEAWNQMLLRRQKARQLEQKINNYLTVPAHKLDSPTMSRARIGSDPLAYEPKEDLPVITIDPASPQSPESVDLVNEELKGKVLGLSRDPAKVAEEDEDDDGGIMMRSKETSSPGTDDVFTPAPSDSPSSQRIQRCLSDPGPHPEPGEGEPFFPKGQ

As to `CS(=O)(=O)c1ccc(-n2cc(C(=O)NC(=N)N)c3cccnc32)cc1` (as salt: hydrochloride) [Example 6, N-[1-(4-(Methylsulfonyl)phenyl)-1H-pyrrolo[2,3-b]pyridine-3-carbonyl]guanidine hydrochloride], the melting point (as a rule, the temperature of the solid-liquid transition) is 266 to 270 °C. For the compound `N=C(N)NC(=O)c1cn(-c2ccnc3ccccc23)c2ncccc12` [Example 1, N-[1-(Quinolin-4-yl)-1H-pyrrolo[2,3-b]pyridine-3-carbonyl]guanidine], the melting point came to 164 °C. Moreover, the 50% inhibitory concentration (IC50) (usually the concentration needed to halve the response being measured) against NHE1 came to 3 nM. As for `N=C(N)NC(=O)c1cn(-c2ccncc2)c2ncccc12` [Example 2, N-[1-(Pyridin-4-yl)-1H-pyrrolo[2,3-b]pyridine-3-carbonyl]guanidine], the melting point was determined as 210 °C. On NHE1, this compound came in with an IC50 of 10 nM. `N=C(N)NC(=O)c1cn(-c2nccc3ccccc23)c2ncccc12` [Example 3, N-[1-(Isoquinolin-1-yl)-1H-pyrrolo[2,3-b]pyridine-3-carbonyl]guanidine] displayed an IC50 on NHE1 of 15 nM. `N=C(N)NC(=O)c1cn(-c2ccc3ccccc3n2)c2ncccc12` [Example 4, N-[1-(Quinolin-2-yl)-1H-pyrrolo[2,3-b]pyridine-3-carbonyl]guanidine] gave an IC50 at NHE1 of 6240 nM.

In turn, `Cl.N=C(N)NC(=O)c1cn(-c2ccccn2)c2ncccc12` [Example 5, N-[1-(Pyridin-2-yl)-1H-pyrrolo[2,3-b]pyridine-3-carbonyl]guanidine hydrochloride] showed a melting point of 205 to 207 °C. On NHE1, this compound displayed an IC50 of 18 nM. `CS(=O)(=O)c1ccc(-n2cc(C(=O)NC(=N)N)c3cccnc32)cc1` [Example 6, N-[1-(4-(Methylsulfonyl)phenyl)-1H-pyrrolo[2,3-b]pyridine-3-carbonyl]guanidine hydrochloride] showed an IC50 against NHE1 of 3760 nM. Regarding `CN(C)c1cccc(-n2cc(C(=O)NC(=N)N)c3cccnc32)c1` [Example 7, N-[1-(3-(Dimethylamino)phenyl)-1H-pyrrolo[2,3-b]pyridine-3-carbonyl]guanidine], the IC50 on NHE1 turned out to be 3 nM. Turning to `Cc1cc(-n2cc(C(=O)NC(=N)N)c3cccnc32)c2ccccc2n1` [Example 8, N-[1-(2-Methylquinolin-4-yl)-1H-pyrrolo[2,3-b]pyridine-3-carbonyl]guanidine hydrochloride], the midpoint of inhibition on NHE1, the IC50, lay at 26 nM.

Take `Cn1ccc2c(-n3cc(C(=O)NC(=N)N)c4cccnc43)ncnc21` [Example 9, N-[1-(7-Methyl-7H-pyrrolo[2,3-d]pyrimidin-4-yl)-1H-pyrrolo[2,3-b]pyridine-3-carbonyl]-guanidine]: the melting point was more than 260 °C. This compound registered an IC50 on NHE1 of 37 nM.

For `N=C(N)NC(=O)c1cn(-c2cc(O)nc3ccccc23)c2ncccc12` [Example 10, N-[1-(2-Hydroxy-quinolin-4-yl)-1H-pyrrolo[2,3-b]pyridine-3-carbonyl]-guanidine], on NHE1, the IC50 was found to be 660 nM.
